From paper PMC8802628, “Selective activation of PFKL suppresses the phagocytic oxidative burst” (Cell, 2021) come the findings set out here.

For assay [1], the target named is T1, 14-3-3 protein eta (YWHAH) (Homo sapiens, UniProt Q04917).
T1 construct: endogenous in cells; host or cells: human neutrophil lysate
Description: PISA of neutrophil lysates (Data S2). The class given is binding. The note with it: Comparison NA11_MidT-DMSO_MidT. The protocol:
(§1) Neutrophils (3 × 10^7) were treated with 50 nM PMA for 20 min. Cell were washed twice in D-PBS, resuspended in KB buffer (25 mM Tris-HCL pH 7.5, 1 mM DTT, 10 mM MgCl2) and frozen in liquid nitrogen. Lysates were prepared by 5-7 freeze-thaw cycles in KB buffer. Protein concentration was determined via Bradford assay and lysates were incubated on ice for 30 min with either 10 μM NA-11 or DMSO vehicle. Samples were analyzed in two formats: (1) classical thermal proteome profiling (TPP) with full melting curves using 16-plex TMT labeling (8 temperatures between 37-65°C), and (2) Proteome Integral Solubility Alteration (PISA) assay with aggregated protein abundance from a defined temperature range using 10-plex TMT labeling (Five replicates 44-58°C). Aliquots (5 mg) were divided and heated at 8 temperatures in the 37-65°C range or 6 temperatures in the 44-58°C range, and cooled on ice for 3 min.
(§2) For TPP, heated lysates from different temperatures were kept separate. For PISA, lysates from different temperatures were combined based on treatment. Samples were centrifuged at 20,000 x g for 20 min at 4°C and supernatants were isolated for analysis. Proteins were denatured in 4 M urea, reduced with 5 mM DTT at 60°C for 20 min, and alkylated with 11 mM iodoacetamide (IAA) for 20 min. Urea was diluted to 2 M with 20 mM HEPES. Proteins were digested with Lys-C (Wako) diluted 1:50 for 3 h at 37°C, and then with Trypsin (PTMScan) diluted 1:100 overnight at 37°C. Peptides were cleaned on C18 Sep-Pak cartridges, 50 mg absorbent (Waters, WAT054960) and labeled with 16-plex TMTpro or 10-plex TMT. Labeled peptides were pooled, cleaned on a C18 Sep-Pak cartridge, and fractionated by offline high pH reversed phase separation and combined into 12 fractions in checkerboard fashion. Peptides were cleared on C18 STAGE-tips before mass spectrometry.
(§3) For the classical TPP, quantitative data from each temperature were used to generate a thermal titration curve and calculate a melting point. PSM level quantitation was log2 transformed and summarized to protein level by aggregating all PSMs from the same primary Uniprot reference, and systematic variation between the treatments was normalized at each temperature. A thermal titration curve was fitted from experimental data for each protein and for each treatment condition using Self-Starting Nls Four-Parameter Logistic Model from stats v3.6.2 in R. Melting point was calculated at the 50% between intensity at the lowest temperature and intensity at the highest temperature. A quality score is calculated for each protein by evaluating R squares, curve slopes and similarity in slopes between the two fitted curves. For the PISA experiment, quantitative data from each replicate of combined temperatures were used to calculate fold changes and p values between the treatment conditions. Quantified PSMs were normalized based on global median abundance among all PSMs, and then summarized to the protein level using statistical package MSstats_3.14.1 ([Choi et al., 2014]). Fold changes and p values were calculated between pre-defined treatment groups by the MSstats package. For the photoaffinity probe based pull-down study, pairwise differential analysis was applied to treatment groups. TMT abundance of all PSMs was aggregated to their respective proteins. Ratios between each treatment group were calculated based on their mean protein abundance from replicates and a Student’s t test was applied to each pair to calculate p values. […]

Assay [2] deals with T2, 14-3-3 protein beta/alpha (YWHAB) (Homo sapiens, UniProt P31946).
T2 construct: endogenous in cells; host or cells: human blood leukocytes, labelled live
T2 sequence (P31946 whole entry): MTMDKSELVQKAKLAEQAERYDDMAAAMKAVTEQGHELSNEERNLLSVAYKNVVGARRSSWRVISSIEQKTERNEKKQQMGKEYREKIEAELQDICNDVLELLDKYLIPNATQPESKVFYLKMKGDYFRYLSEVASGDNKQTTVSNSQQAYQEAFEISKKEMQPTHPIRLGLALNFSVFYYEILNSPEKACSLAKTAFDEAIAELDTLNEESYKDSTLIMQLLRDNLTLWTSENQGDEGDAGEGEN
Kind of assay: PISA of neutrophil lysates (Data S2). The assay is classed as binding. The note with it: Comparison NA11_MidT-DMSO_MidT. As to the method:
as §1, §2, §3

Assay [3] addresses T3, 14-3-3 protein epsilon (YWHAE) (Homo sapiens, UniProt P62258).
T3 construct: endogenous in cells; host or cells: human blood leukocytes, labelled live
Kind of assay: PISA of neutrophil lysates (Data S2). The assay is classed as binding. The note with it: Comparison NA11_MidT-DMSO_MidT. The protocol: as §1, §2, §3

Assay [4] deals with T4, 14-3-3 protein gamma (YWHAG) (Homo sapiens, UniProt P61981).
T4 construct: endogenous in cells; host or cells: human neutrophil lysate
T4 sequence (P61981 whole entry): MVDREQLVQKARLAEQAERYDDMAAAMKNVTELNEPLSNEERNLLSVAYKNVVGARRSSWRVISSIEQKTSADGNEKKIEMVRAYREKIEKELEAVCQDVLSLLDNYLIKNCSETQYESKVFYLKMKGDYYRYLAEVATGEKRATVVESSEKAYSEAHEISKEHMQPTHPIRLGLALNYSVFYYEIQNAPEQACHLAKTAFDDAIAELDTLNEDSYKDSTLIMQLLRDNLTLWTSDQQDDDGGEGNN
Description: PISA of neutrophil lysates (Data S2). The assay is classed as binding. The note with it: Comparison NA11_MidT-DMSO_MidT. As to the method: as §1, §2, §3

For assay [5], the target named is T5, 14-3-3 protein theta (YWHAQ) (Homo sapiens, UniProt P27348).
T5 construct: endogenous in cells; host or cells: human neutrophil lysate
T5 sequence (P27348 whole entry): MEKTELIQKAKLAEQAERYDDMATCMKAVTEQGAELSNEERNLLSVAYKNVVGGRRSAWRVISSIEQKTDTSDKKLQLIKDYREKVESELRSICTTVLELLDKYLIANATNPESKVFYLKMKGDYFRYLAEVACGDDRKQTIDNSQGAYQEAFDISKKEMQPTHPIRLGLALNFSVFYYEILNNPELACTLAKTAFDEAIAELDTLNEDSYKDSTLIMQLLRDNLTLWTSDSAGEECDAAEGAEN
Description: PISA of neutrophil lysates (Data S2). The class given is binding. The note with it: Comparison NA11_MidT-DMSO_MidT. As to the method:
as §1, §2, §3

The subject of assay [6] is MEK or ERK. Kind of assay: PMA-induced MEK/ERK activation in neutrophils (western blot). The class given is cell-based, human. The protocol:
Figure S3. Chemoproteomic analysis of covalent crosslinking using photolabeling probe PALP1, related to Figure 2
(A) Volcano plots of the fold change in peptides detected after afﬁnity pull-downs using PALP1 and PALP6. P values were calculated by Student’s t test across
three replicates. (B and C) Spectral counts of all PFKL (B) or TBB4B (C) peptides across replicates (left) or with individual peptides distinguished by color (right). (D)
Activity of recombinant NAMPT. Bars represent the mean ± s.d. of 3 independent experiments. (E) western blots of PMNs pretreated with 0.5 mM NA-11 or 1 mM
MEK1/2 inhibitor U0126 for 30 min, and then activated with 50 nM PMA for 30 min. Results are representative of 3 independent experiments.
(1 picture or pasted object on this page, not shown here)
In general terms: A western blot detects proteins with antibodies after separation by electrophoresis.

T1 sequence (Q04917 whole entry): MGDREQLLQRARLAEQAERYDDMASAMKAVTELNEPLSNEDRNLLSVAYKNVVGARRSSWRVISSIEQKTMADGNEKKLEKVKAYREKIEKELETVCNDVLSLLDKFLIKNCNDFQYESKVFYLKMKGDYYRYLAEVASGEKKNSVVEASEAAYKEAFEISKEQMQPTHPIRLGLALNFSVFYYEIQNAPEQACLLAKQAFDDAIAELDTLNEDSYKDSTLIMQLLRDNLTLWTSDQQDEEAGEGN
T3 sequence (P62258 whole entry): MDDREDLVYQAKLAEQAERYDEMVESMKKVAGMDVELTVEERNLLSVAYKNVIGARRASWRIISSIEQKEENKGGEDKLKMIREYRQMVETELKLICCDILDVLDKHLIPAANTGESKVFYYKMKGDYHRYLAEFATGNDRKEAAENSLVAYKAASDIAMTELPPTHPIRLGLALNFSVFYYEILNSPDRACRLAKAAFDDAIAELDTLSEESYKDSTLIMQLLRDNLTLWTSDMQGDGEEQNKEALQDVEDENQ

With `CC(=O)Nc1ccc2c(c1)OCc1cc(-c3ccccc3C#CCCCO)nn1C2` [NA-11], the log2FC in assay [1] is 0.0948; in assay [2], -0.07; in assay [3], -0.04; in assay [4] it was 0.0136; in assay [5], -0.18. Further, in assay [6], the “PMA-induced activation of MEK or ERK” value is “did not perturb PMA-induced activation of MEK or ERK”.
